Laboratory results as given in the supplement of paper PMC10307832.

Tests used:
Test in all cases: relative viability (nuclei count vs DMSO), 5 days (fraction); higher = more cells survive
[1] = compound: CC1=CN=C(N=C1C2=CNC(=C2)C(=O)N[C@H](CO)C3=CC(=CC=C3)Cl)NC4=C(C=C(C=C4)F)Cl [VX-11e] + CC(=O)Nc1cccc(-n2c(=O)n(C3CC3)c(=O)c3c(Nc4ccc(I)cc4F)n(C)c(=O)c(C)c32)c1 [Trametinib] (partner 0.02 µM)
Outline: (§1)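 Lung cancer cell lines in 1536-well plates got either a single drug or a fixed anchor-drug dose together with five library-drug doses (not always all listed) in √10 steps, by pin tool, on the day after seeding. Nuclei were counted after 5 days, and relative viability is the treated-to-vehicle ratio of nuclei counts. Values are medians of duplicate plates.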

[2] = compound: CC1=CN=C(N=C1C2=CNC(=C2)C(=O)N[C@H](CO)C3=CC(=CC=C3)Cl)NC4=C(C=C(C=C4)F)Cl [VX-11e] + COc1cccc2cc(-c3nc([C@H]4CC[C@H](C(=O)O)CC4)n4ncnc(N)c34)[nH]c12 [OSI-027] (partner 0.5 µM)
Outline: as §1

[3] = compound: CC1=CN=C(N=C1C2=CNC(=C2)C(=O)N[C@H](CO)C3=CC(=CC=C3)Cl)NC4=C(C=C(C=C4)F)Cl [VX-11e] + C[C@@H](Oc1cc(-c2cnn(C3CCNCC3)c2)cnc1N)c1c(Cl)ccc(F)c1Cl [Crizotinib] (partner 1 µM)
Outline: as §1

[4] = compound: CC1=CN=C(N=C1C2=CNC(=C2)C(=O)N[C@H](CO)C3=CC(=CC=C3)Cl)NC4=C(C=C(C=C4)F)Cl [VX-11e] + N=C(N)NC(=N)NCCc1ccccc1 [Phenformin] (partner 250 µM)
Outline: as §1

Cell Line	relative viability ([1]; first compound 0.04 µM)	relative viability ([1]; first compound 0.1265 µM)	relative viability ([1]; first compound 1.265 µM)	relative viability ([1]; first compound 4 µM)	relative viability ([2]; first compound 0.04 µM)	relative viability ([2]; first compound 0.1265 µM)	relative viability ([2]; first compound 1.265 µM)	relative viability ([2]; first compound 4 µM)	relative viability ([3]; first compound 0.04 µM)	relative viability ([3]; first compound 0.1265 µM)	relative viability ([3]; first compound 1.265 µM)	relative viability ([3]; first compound 4 µM)	relative viability ([4]; first compound 0.04 µM)	relative viability ([4]; first compound 0.1265 µM)	relative viability ([4]; first compound 1.265 µM)	relative viability ([4]; first compound 4 µM)	relative viability ([1]; first compound 0.4 µM)	relative viability ([2]; first compound 0.4 µM)	relative viability ([3]; first compound 0.4 µM)	relative viability ([4]; first compound 0.4 µM)
HCC-366	0.353	0.344	0.289	0.187	0.811	0.795	0.544	0.136	0.605	0.476	0.561	0.184	0.61	0.549	0.57	0.463	–	–	–	–
HCC-827	0.555	0.568	0.549	0.274	0.762	0.797	0.977	0.44	1.01	0.953	0.958	0.839	0.409	0.413	0.479	0.375	0.454	0.74	0.888	0.369
HOP-62	0.381	0.428	0.179	0.151	0.633	0.715	0.464	0.372	0.887	0.863	0.76	0.428	0.754	0.647	0.421	0.377	0.296	0.569	0.978	0.524
IA-LM	–	–	–	–	–	–	–	–	0.931	0.961	0.271	0.116	–	–	–	–	–	–	0.697	–
LC-2-ad	0.998	0.856	0.755	0.537	0.73	0.534	0.584	0.466	0.459	0.424	0.395	0.401	0.525	0.461	0.372	0.467	0.881	0.363	0.529	0.395
LCLC-97TM1	0.21	0.179	–	0.0986	0.494	0.274	0.418	0.175	0.396	0.383	0.324	0.182	0.525	0.393	0.516	0.382	0.17	0.287	–	0.347
LCLC-103H	0.67	0.633	0.628	0.558	0.461	0.458	0.402	0.344	1.01	1.09	0.882	0.852	0.309	0.333	0.302	0.295	0.689	0.43	0.968	0.312
LK-2	0.831	0.668	0.234	0.312	0.163	0.187	0.153	0.17	–	0.275	–	0.243	0.241	0.601	0.189	0.173	0.806	0.146	0.394	0.311
LOU-NH91	0.813	0.73	0.768	0.691	0.622	0.67	0.611	0.541	0.706	0.71	0.773	0.639	0.65	0.721	0.468	0.569	–	0.497	–	0.312
LU99A	0.504	0.316	0.272	0.258	0.257	0.324	0.286	0.256	0.527	0.496	0.475	0.243	0.881	0.754	0.907	0.382	0.421	0.249	0.517	0.28
LXF-289	0.729	0.652	0.626	0.498	0.686	0.58	0.517	0.358	0.902	0.788	0.706	0.543	0.578	0.5	0.463	0.365	–	0.174	0.87	0.16
NCI-H23	0.276	0.339	0.223	0.219	0.368	0.411	0.271	0.173	0.422	0.504	0.347	0.32	0.682	0.701	0.666	0.436	0.287	–	0.416	–
NCI-H522	0.684	0.773	0.645	0.589	0.615	0.683	0.613	0.572	–	–	–	–	0.609	0.621	0.48	0.656	0.618	0.556	–	0.558
NCI-H1299	–	–	–	–	–	–	–	–	0.994	0.879	0.84	0.47	–	–	–	–	–	–	0.956	–
NCI-H1395	1	0.942	0.895	0.617	0.572	0.539	0.621	0.447	–	–	–	–	0.42	0.405	0.461	0.398	–	0.57	–	0.453
NCI-H1563	–	–	–	–	0.729	0.697	0.822	0.789	0.861	0.799	0.91	0.642	0.647	0.607	0.713	0.806	–	0.705	0.969	0.549
NCI-H1648	–	0.406	0.376	0.291	0.273	0.238	0.245	0.241	–	–	–	–	–	–	–	–	0.5	0.29	–	–
NCI-H1703	–	–	–	–	–	–	–	–	0.985	0.727	0.589	0.582	–	–	–	–	–	–	–	–
NCI-H1793	–	0.316	0.344	0.27	0.247	0.194	0.251	0.134	–	–	–	–	0.372	0.314	0.34	0.245	–	–	–	–
NCI-H2342	–	0.741	0.858	0.823	0.505	0.592	0.539	0.56	–	–	–	–	0.438	0.614	0.782	0.583	0.765	0.637	–	0.534
SW 900	0.826	0.761	0.483	0.605	0.276	0.448	0.304	0.246	–	–	–	–	0.504	0.456	0.213	0.318	–	0.12	–	0.216
